Experimental data from patent US11274097B2, “2-(het)aryl-substituted condensed bicyclic heterocycle derivatives as pest control agents” (BAYER CROPSCIENCE AKTIENGESELLSCHAFT, priority 2014, dated 2022).

How the values were obtained:
Type in all cases: in vivo
Ctenocephalides felis [1] = assay: Ctenocephalides felis oral test (CTECFE); conditions: application rate 100 ppm; in citrated cattle blood; after 2 days
Protocol: Ctenocephalides felis-Oral Test ([…]) Solvent: dimethyl sulphoxide For the purpose of producing an appropriate active ingredient formulation, 10 mg of active ingredient are mixed with 0.5 ml of dimethyl sulphoxide. Dilution with citrated cattle blood gives the desired concentration. About 20 unfed adult cat fleas (Ctenocephalides felis) are placed into a chamber which is closed at the top and bottom with gauze. A metal cylinder whose bottom end is closed with parafilm is placed onto the chamber. The cylinder contains the blood/active ingredient preparation, which can be imbibed by the fleas through the parafilm membrane. After 2 days, the kill in % is determined. 100% means that all of the fleas have been killed; 0% means that none of the fleas have been killed.

Nephotettix cincticeps = Nephotettix cincticeps test (NEPHCI); conditions: 0.16 ppm
Protocol: Nephotettix cincticeps Test (NEPHCI)
(§1) Solvent: 7 parts by weight of dimethylformamide
(§2) Emulsifier: alkylaryl polyglycol ether
(§3) To produce an appropriate active ingredient formulation, 1 part by weight of active ingredient is dissolved using the stated parts by weight of solvent and made up with water containing an emulsifier concentration of 1000 ppm until the desired concentration is attained. To produce further test concentrations, the preparation is diluted with emulsifier-containing water. In the event that addition of ammonium salts or/and penetrants (rapeseed oil methyl ester) is required, these are each pipetted in a concentration of 1000 ppm after the finished formulation solution has been diluted.
Rice plants (Oryza sativa, var. Balilla) are treated by spraying with the active ingredient formulation in the desired concentration and then populated with larvae of the green rice leafhopper (Nephotettix cincticeps).
After the desired time, the kill in % is determined. 100% means that all leafhoppers have been killed; 0% means that none of the leafhoppers have been killed.

Ctenocephalides felis [2] = assay: Ctenocephalides felis in vitro contact test; conditions: application rate 5 μg/cm^2; adult cat fleas; after 48 h
Protocol: Ctenocephalides felis—In Vitro Contact Test
For the coating of the test tubes, 9 mg of active ingredient are first dissolved in 1 ml of acetone p.a. and then diluted to the desired concentration with acetone p.a. 250 μl of the solution are distributed homogeneously on the inner walls and base of a 25 ml test tube by turning and rocking on an orbital shaker (rocking rotation at 30 rpm for 2 h). With 900 ppm active ingredient solution and internal surface 44.7 cm^2, given homogeneous distribution, an area-based dose of 5 μg/cm^2 is achieved.
After the solvent has evaporated off, the tubes are populated with 5-10 adult cat fleas (Ctenocephalides felis), sealed with a perforated plastic lid and incubated in a horizontal position at room temperature and ambient humidity. After 48 h, efficacy is determined. To this end, the test tubes are stood upright and the fleas are knocked to the base of the tube. Fleas which remain motionless at the base or move in an uncoordinated manner are considered to be dead or moribund.
100% efficacy means that all the fleas were dead or moribund. 0% efficacy means that no fleas were harmed.

Aphis gossypii = Aphis gossypii translaminar test (APHIGO t); conditions: 2.4 g/ha, 7 dat
Protocol: Aphis gossypii—Translaminar Test (APHIGO t)
as §1, §2, §3
One-leaved cotton plants (Gossypium hirsutum) heavily infested by the cotton aphid (Aphis gossypii) are treated by spraying the top side of the leaf with the active ingredient formulation in the desired concentration.
After the desired time, the kill in % is determined. 100% means that all the aphids have been killed and 0% means that none of the aphids have been killed.

CCS(=O)(=O)c1cc(C(F)(F)F)cnc1-c1nc2cc(C(F)(F)F)ncc2n1C [Example I-21]
efficacy (kill) (Ctenocephalides felis [1]): 90%
% efficacy (Nephotettix cincticeps; 14 dat): 90%
% efficacy (Nephotettix cincticeps; 21 dat): 95%
% efficacy (Nephotettix cincticeps; 34 dat): 100%
efficacy (Ctenocephalides felis [2]): 100%
% efficacy (Aphis gossypii): 65%
